# Article PMC7174603, “Functional Analysis of Two Odorant-Binding Proteins, MaltOBP9 and MaltOBP10, in Monochamus alternatus Hope” (Frontiers in Physiology, 2020)
# Columns and labels:
# MaltOBP10 [1] = biological target: T1, MaltOBP10 (Monochamus alternatus, UniProt A0A1I9HZL5); test: fluorescence competitive binding, 1-NPN displacement; conditions: read-out: MaltOBP10 / pH7.4
# T1 construct: gene obp10; said to encode mature protein (clone primer starts at ATG)
# T1 sequence (A0A1I9HZL5 1-144 limits assumed): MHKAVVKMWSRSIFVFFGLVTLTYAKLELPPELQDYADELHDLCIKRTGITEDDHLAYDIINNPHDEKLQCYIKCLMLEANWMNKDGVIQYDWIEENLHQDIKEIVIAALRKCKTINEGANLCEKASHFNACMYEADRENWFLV
# Text: fluorescence competitive binding, 1-NPN displacement on MaltOBP10
# MaltOBP9 [2] = biological target: T2, MaltOBP9 (Monochamus alternatus, UniProt A0A1I9HZK8); test: biochemical; parameters: 1-NPN fluorescence displacement competitive binding to 2 uM recombinant OBP; Ki from IC50
# T2 construct: gene obp9; said to encode mature protein (clone primer starts at ATG)
# T2 sequence (A0A1I9HZK8 1-140 limits assumed): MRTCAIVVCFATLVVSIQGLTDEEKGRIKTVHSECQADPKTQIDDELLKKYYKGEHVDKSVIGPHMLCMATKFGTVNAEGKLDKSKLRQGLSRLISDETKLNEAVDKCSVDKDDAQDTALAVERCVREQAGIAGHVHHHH
# Method: (§1) Fluorescence-binding assays were performed to determine the binding affinities of MaltOBP9 and MaltOBP10 with 17 volatiles in neutral and acidic pH conditions separately using N-phenyl-1-naphthylamine (1-NPN) as the fluorescent probe. 1-NPN and all of the other chemicals used in the binding assays were purchased from Sigma-Aldrich (St. Louis, MO, United States). All of the ligand stock solutions were prepared in spectrophotometric grade methanol. The binding constants for 1-NPN were determined by adding aliquots of 1 mM 1-NPN to separate samples containing 2 μM of each OBP in 50 mM Tris–HCl at pH 7.4 and room temperature. The binding of 1-NPN was measured at an excitation wavelength of 337 nm and the fluorescence intensity was recorded between 300 and 600 nm during a high-speed scan using an RF-5301PC fluorescence spectrophotometer with a 1-cm light path and a quartz cuvette. Saturation curves were constructed for the binding of 1-NPN with the OBPs and the dissociation constant (Kd) of the binding reaction was calculated by performing Scatchard analysis of the data using the Prism 5 program (GraphPad, La Jolla, CA, United States). The binding analyses were performed based on the assumption that the protein was completely active and that the stoichiometry of binding was 1:1 at saturation. Aliquots of the competitor ligand were added to a sample containing 2 μM of each separate OBP and a standard concentration of 1-NPN. […] The binding data were collected during three independent high-speed scans. Ki representing the Kd of the competitor was determined based on the IC50 value (half maximal inhibitory concentration) for the competitor as the concentration of the competitor that displaced 50% of the bound 1-NPN at a standard total 1-NPN concentration (bound plus free) at equilibrium. Ki was calculated according to the following equation: Ki = [IC50]/(1+[1-NPN]/K), where 1-NPN is the free concentration of 1-NPN and K1–NPN is Kd for the 1-NPN-OBP binding reaction determined by Scatchard analysis ([Campanacci et al., 2001]). After confirmation by SDS-PAGE, the purified MaltOBP9 and MaltOBP10 proteins were used in fluorescence-binding assays to determine their binding affinities with different volatiles that come from forest. First, we analyzed the binding of the fluorescent probe 1-NPN with MaltOBP9 and MaltOBP10 (Figure 6). […] The binding affinities (Ki < 50) ([Zheng et al., 2016]) with all of the ligands indicted the broad binding ranges of MaltOBP9 and MaltOBP10 at pH 7.4. […] The change in the pH appeared to have less impact on the binding with MaltOBP10.
# MaltOBP10 [3] = biological target: T1, MaltOBP10; test: biochemical; parameters: 1-NPN fluorescence displacement competitive binding to 2 uM recombinant OBP; Ki from IC50
# Method: as §1
# MaltOBP9 [4] = biological target: T2, MaltOBP9; test: fluorescence competitive binding, 1-NPN displacement; conditions: read-out: MaltOBP9 / pH7.4
# Text: fluorescence competitive binding, 1-NPN displacement on MaltOBP9
# MaltOBP9 [5] = biological target: T2, MaltOBP9; test: fluorescence titration, Scatchard analysis; format: binding; conditions: read-out: MaltOBP9 / pH7.4
# Text: fluorescence titration, Scatchard analysis on MaltOBP9
# MaltOBP9 [6] = biological target: T2, MaltOBP9; test: biochemical; parameters: direct 1-NPN fluorescence saturation binding to 2 uM recombinant OBP; Kd by Scatchard analysis; conditions: pH 5.0; read-out: MaltOBP9 / pH5.0
# Method: (§2) Fluorescence-binding assays were performed to determine the binding affinities of MaltOBP9 and MaltOBP10 with 17 volatiles in neutral and acidic pH conditions separately using N-phenyl-1-naphthylamine (1-NPN) as the fluorescent probe. 1-NPN and all of the other chemicals used in the binding assays were purchased from Sigma-Aldrich (St. Louis, MO, United States). All of the ligand stock solutions were prepared in spectrophotometric grade methanol. The binding constants for 1-NPN were determined by adding aliquots of 1 mM 1-NPN to separate samples containing 2 μM of each OBP in 50 mM Tris–HCl at pH 7.4 and room temperature. The binding of 1-NPN was measured at an excitation wavelength of 337 nm and the fluorescence intensity was recorded between 300 and 600 nm during a high-speed scan using an RF-5301PC fluorescence spectrophotometer with a 1-cm light path and a quartz cuvette. Saturation curves were constructed for the binding of 1-NPN with the OBPs and the dissociation constant (Kd) of the binding reaction was calculated by performing Scatchard analysis of the data using the Prism 5 program (GraphPad, La Jolla, CA, United States). […] Ki was calculated according to the following equation: Ki = [IC50]/(1+[1-NPN]/K), where 1-NPN is the free concentration of 1-NPN and K1–NPN is Kd for the 1-NPN-OBP binding reaction determined by Scatchard analysis ([Campanacci et al., 2001]). […]
# MaltOBP10 [7] = biological target: T1, MaltOBP10; test: biochemical; parameters: direct 1-NPN fluorescence saturation binding to 2 uM recombinant OBP; Kd by Scatchard analysis; conditions: pH 5.0; read-out: MaltOBP10 / pH5.0
# Method: as §2
# MaltOBP10 [8] = biological target: T1, MaltOBP10; test: fluorescence titration, Scatchard analysis; format: binding; conditions: read-out: MaltOBP10 / pH7.4
# Text: fluorescence titration, Scatchard analysis on MaltOBP10
# [9] = pH 5.0, read-out: MaltOBP9 / pH5.0
# [10] = pH 7.4, read-out: MaltOBP9 / pH7.4
# [11] = pH 5.0, read-out: MaltOBP10 / pH5.0
# [12] = pH 7.4, read-out: MaltOBP10 / pH7.4
Compound,Ki (MaltOBP10 [1]) [µM],Ki (MaltOBP9 [2]; [9]) [µM],Ki (MaltOBP9 [2]; [10]) [µM],Ki (MaltOBP10 [3]; [11]) [µM],Ki (MaltOBP10 [3]; [12]) [µM],Ki (MaltOBP9 [4]) [µM],other results
CC1=CC[C@@H]2C[C@H]1C2(C)C [(+)-α-pinene],13.3 ± 1.94,> 50,21.1 ± 2.84,17.3 ± 3.16,,,
CC1=CCC2C(C1)C2(C)C (stereo not drawn) [3-carene],,38.12 ± 0.23,25.1 ± 0.76,32.5 ± 4.28,42.5 ± 0.82,,
C=CC(=C)CCC=C(C)C [Myrcene],12.4 ± 0.5,3.96 ± 0.78,,19.37 ± 0.02,,7.77 ± 0.14,
CC1(C)[C@H]2CC[C@]1(C)C(=O)C2 (racemic) [Camphor],,50.5 ± 3.68,25.9 ± 0.76,21.2 ± 3.49,26.2 ± 1.76,,
C=C(C)[C@@H]1CC=C(C)CC1 [S-(−)-Limonene],18.4 ± 0.67,12 ± 0.86,29.2 ± 1.81,51.7 ± 5.74,,,
CC1=CCC(=C(C)C)CC1 [α-terpinolene],17.5 ± 0.33,18.5 ± 0.23,22.2 ± 0.34,15.6 ± 1.44,,,
"C=C(C)C1CCC2(C)OC2C1 (single isomer, unassigned; (+)) [(+)-Limonene oxide]",,,,,,,"Ki (MaltOBP9 [2]; pH 5.0, binder, read-out: MaltOBP9 / pH5.0): 48.8 ± 4.51 µM; Ki (MaltOBP9 [2]; pH 7.4, binder, read-out: MaltOBP9 / pH7.4): 43.3 ± 0.74 µM; Ki (MaltOBP10 [3]; pH 5.0, binder, read-out: MaltOBP10 / pH5.0): 46.1 ± 4.9 µM; Ki (MaltOBP10 [3]; pH 7.4, binder, read-out: MaltOBP10 / pH7.4): 19.8 ± 1.78 µM"
C=C1[C@@H]2CC[C@@H](C2)C1(C)C [Camphene],,> 50,22.6 ± 1.08,14.8 ± 0.57,20.6 ± 1.22,,
C=C1[C@H]2CC[C@@H]3[C@H]2[C@H](C(C)C)CC[C@]13C [(+)-Sativene],,,,,,,"Ki (MaltOBP9 [4]; pH 7.4, 50 mM Tris-HCl, room temperature, competitive with 1-NPN, 2 μM protein): 19.5 ± 0.36 µM"
CC1(C)C(=O)[C@@]2(C)CC[C@@H]1C2 [(+)-Fenchone],,46.2 ± 2.59,27.8 ± 1.04,24.7 ± 1.29,22.7 ± 1.23,,
c1ccc(Nc2cccc3ccccc23)cc1 [1-NPN],,,,,,,Kd (MaltOBP9 [5]): 1.7 ± 0.21 µM; Kd (MaltOBP9 [6]): 0.62 ± 0.18 µM; Kd (MaltOBP10 [7]): 5.88 ± 0.69 µM; Kd (MaltOBP10 [8]): 1.35 ± 0.09 µM
C=C1CC/C=C(\C)CC[C@@H]2[C@@H]1CC2(C)C [β-Caryophyllene],16.3 ± 1.97,129 ± 9.52,,23.5 ± 1.72,,16.36 ± 0.04,
C=C(C)[C@H]1CC=C(C)CC1 [R-(+)-Limonene],,> 50,,55.5 ± 9.88,23.9 ± 1.89,17.1 ± 2.24,
Cc1cc(C(C)(C)C)c(O)c(C(C)(C)C)c1 [Butylated hydroxytoluene],20.1 ± 2.75,3.57 ± 0.58,,,,9.58 ± 0.28,
C=C1CC[C@@H]2C[C@H]1C2(C)C [(+)-β-pinene],,21.7 ± 0.65,,62.8 ± 1.08,25.8 ± 3.78,,
Cc1ccc(C(C)C)cc1 [p-cymene],,> 50,,35.4 ± 0.63,23.8 ± 2.33,11.7 ± 0.23,
C=C1CC[C@H]2O[C@]2(C)CC[C@@H]2[C@@H]1CC2(C)C [(−)-caryophyllene oxide],16.4 ± 0.4,39.3 ± 0.73,,,,15.3 ± 0.94,
CC1=CC[C@@H]2[C@@H]3[C@H]1[C@@]2(C)CCCC3(C)C [(+)-α-longipinene],11.6 ± 0.74,34.7 ± 0.94,,21.2 ± 1.75,,12.5 ± 0.67,
